The record followed here is US20100120763A1, “IMIDAZO[5,1-C][1,2,4]BENZOTRIAZINE DERIVATIVES AS INHIBITORS OF PHOSPHODIESTERASES” (priority 2008, published 2010).

Like-named read-outs stand apart in the source and are kept apart here.

Data set [1] addresses T1, PDE10A (Homo sapiens, UniProt Q9Y233).
T1 construct: made in house; host or cells: SF21 insect cells (baculovirus)
The data set can be described thus: Inhibition of recombinant PDE10A (baculovirus/SF21 system), [3H]-cAMP SPA. In kind it is biochemical.

Data set [2] has as its target T2, PDE2A (Homo sapiens, UniProt O00408).
T2 construct: made in house; host or cells: SF21 insect cells (baculovirus)
The data set can be described thus: Inhibition of recombinant PDE2A (expressed in baculovirus/SF21-cells), [3H]-cAMP SPA. In kind it is biochemical. Summed up:
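Membrane fraction of baculovirus/SF21-expressed PDE2A was incubated 30 min at 37° C in Tris-HCl/MgCl2 pH 7.4 with 0.5 μM [3H]-cAMP and 1000 nM cGMP as activator. Product was detected by SPA scintillation. IC50 used a Hill-plot 2-parameter model.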

Setting [3] is: recombinant PDE10A1, cytosolic, 0.1 μM [3H]-cAMP, 37° C., 30 minutes, read-out: PDE10A IC50.

T1 sequence (Q9Y233 1-779 isoform Q9Y233-1): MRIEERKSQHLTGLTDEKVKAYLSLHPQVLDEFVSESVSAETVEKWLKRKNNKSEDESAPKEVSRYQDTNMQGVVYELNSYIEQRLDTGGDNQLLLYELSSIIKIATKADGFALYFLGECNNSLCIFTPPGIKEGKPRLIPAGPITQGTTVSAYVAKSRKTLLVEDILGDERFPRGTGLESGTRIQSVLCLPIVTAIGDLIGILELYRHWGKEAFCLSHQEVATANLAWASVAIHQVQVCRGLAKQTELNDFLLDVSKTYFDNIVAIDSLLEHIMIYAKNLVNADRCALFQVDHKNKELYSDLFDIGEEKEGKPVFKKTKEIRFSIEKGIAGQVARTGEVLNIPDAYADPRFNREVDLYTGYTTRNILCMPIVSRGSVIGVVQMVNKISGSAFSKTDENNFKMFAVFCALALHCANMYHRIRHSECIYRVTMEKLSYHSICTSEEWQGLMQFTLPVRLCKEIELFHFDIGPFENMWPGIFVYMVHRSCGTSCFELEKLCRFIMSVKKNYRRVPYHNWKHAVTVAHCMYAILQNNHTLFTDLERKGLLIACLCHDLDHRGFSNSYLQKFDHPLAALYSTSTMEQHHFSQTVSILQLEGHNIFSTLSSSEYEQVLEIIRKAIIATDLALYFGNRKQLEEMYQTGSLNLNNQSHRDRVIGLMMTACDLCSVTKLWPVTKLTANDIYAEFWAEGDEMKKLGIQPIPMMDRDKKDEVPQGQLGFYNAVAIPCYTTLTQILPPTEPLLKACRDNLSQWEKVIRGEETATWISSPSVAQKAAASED
T2 sequence (O00408 whole entry): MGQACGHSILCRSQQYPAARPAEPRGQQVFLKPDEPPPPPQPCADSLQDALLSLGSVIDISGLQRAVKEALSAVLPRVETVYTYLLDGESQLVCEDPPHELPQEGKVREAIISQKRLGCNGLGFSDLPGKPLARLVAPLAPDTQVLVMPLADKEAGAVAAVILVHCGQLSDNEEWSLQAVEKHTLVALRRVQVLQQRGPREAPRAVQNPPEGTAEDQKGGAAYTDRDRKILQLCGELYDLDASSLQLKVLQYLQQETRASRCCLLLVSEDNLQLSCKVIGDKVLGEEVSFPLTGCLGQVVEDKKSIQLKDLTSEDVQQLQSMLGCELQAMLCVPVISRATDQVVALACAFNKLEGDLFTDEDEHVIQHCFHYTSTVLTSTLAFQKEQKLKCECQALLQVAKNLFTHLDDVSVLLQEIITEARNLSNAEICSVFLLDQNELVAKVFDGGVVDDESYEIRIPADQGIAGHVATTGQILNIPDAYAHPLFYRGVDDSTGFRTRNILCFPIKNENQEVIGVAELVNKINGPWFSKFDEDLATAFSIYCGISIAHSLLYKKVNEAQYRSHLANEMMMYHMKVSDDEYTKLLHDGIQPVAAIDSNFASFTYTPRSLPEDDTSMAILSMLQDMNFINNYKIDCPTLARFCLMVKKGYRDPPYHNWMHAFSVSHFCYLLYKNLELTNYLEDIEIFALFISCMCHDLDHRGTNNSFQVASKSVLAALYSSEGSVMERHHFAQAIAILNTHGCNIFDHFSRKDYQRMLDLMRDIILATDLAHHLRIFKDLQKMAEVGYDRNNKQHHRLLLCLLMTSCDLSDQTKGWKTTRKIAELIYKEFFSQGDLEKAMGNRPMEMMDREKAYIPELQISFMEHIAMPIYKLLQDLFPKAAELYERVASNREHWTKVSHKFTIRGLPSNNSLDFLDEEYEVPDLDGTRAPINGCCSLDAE

What is called IC50 is the concentration that gives 50% inhibition. The term melting point denotes the temperature, or range, at which the solid turns liquid. As for `CCCc1nc(C)c2nnc3ccc(F)cc3n12` [Example 1, 8-fluoro-3-methyl-1-propyl-imidazo[5,1-c][1,2,4]benzotriazine], the melting point lay in the range of 124.5 to 126.5 °C. Further, in data set [1] (setting [3]), the IC50 came to 626 nM. For the same compound, the IC50 in data set [2] is 716 nM.
The matching figures for `CCCc1nc(C)c2nnc3cc(OC)ccc3n12` [Example 2, 7-methoxy-3-methyl-1-propyl-imidazo[5,1-c][1,2,4]benzotriazine]: 159 to 162 °C, 401 nM and 546 nM.
In turn, `CCc1nc(C)c2nnc3ccc(F)cc3n12` [Example 3, 1-ethyl-8-fluoro-3-methyl-imidazo[5,1-c][1,2,4]benzotriazine] had a melting point of 187 to 190 °C. Besides, the IC50 in data set [1] (setting [3]) turned out to be 3900 nM. Further, in data set [2], the IC50 is 3760 nM.
The matching figures for `Cc1nc(C2CCCCC2)n2c1nnc1ccc(F)cc12` [Example 4, 1-cyclohexyl-8-fluoro-3-methyl-imidazo[5,1-c][1,2,4]benzotriazine]: 246 to 250 °C (dec.), 228 nM and 541 nM.
In turn, `COc1ccc2nnc3c(C)nc(-c4cc(Cl)ccc4Cl)n3c2c1` [Example 5, 1-(2,5-dichlorophenyl)-8-methoxy-3-methyl-imidazo[5,1-c][1,2,4]benzotriazine] came in with a melting point of 165 to 168 °C. For the same compound, the half-maximal inhibitory concentration (IC50) in data set [1] (setting [3]) is 23.7 nM. Further, the IC50 in data set [2] was 3.31 nM.
The matching figures for `Cc1nc(-c2cc(Cl)ccc2Cl)n2c1nnc1cc(F)ccc12` [Example 6, 1-(2,5-dichlorophenyl)-7-fluoro-3-methyl-imidazo[5,1-c][1,2,4]benzotriazine]: 186 to 190 °C, 761 nM and 29.8 nM.
On to `COc1ccc2c(c1)nnc1c(C)nc(-c3cc(Cl)ccc3Cl)n12` [Example 7, 1-(2,5-dichlorophenyl)-7-methoxy-3-methyl-imidazo[5,1-c][1,2,4]benzotriazine], for which the melting point was 144 to 147 °C. The IC50 in data set [1] (setting [3]) was found to be 258 nM. For the same compound, the half-maximal inhibitory concentration (IC50) in data set [2] was 17.8 nM.
The like results for `Cc1nc(-c2cc(Cl)ccc2Cl)n2c1nnc1ccc(F)cc12` [Example 8, 1-(2,5-dichlorophenyl)-8-fluoro-3-methylbenzo[e]imidazo[5,1-c][1,2,4]triazine] were, in that order, 146 to 149 °C, 176 nM and 36.5 nM.
`CCC(C)c1nc(C)c2nnc3ccc(F)cc3n12` (stereo not drawn) [Example 10, 1-sec-butyl-8-fluoro-3-methylbenzo[e]imidazo[5,1-c][1,2,4]triazine] returned a melting point of 169 to 171.5 °C. The half-maximal inhibitory concentration (IC50) in data set [1] amounted to 410 nM. For the same compound, in data set [2], the IC50 is 1530 nM.
Turning to `Cc1ncn2c1nnc1ccc(F)cc12` [Example 11, 8-fluoro-3-methylbenzo[e]imidazo[5,1-c][1,2,4]triazine], the melting point came to 230 °C. Further, the IC50 in data set [1] (setting [3]) was greater than 10000 nM. The half-maximal inhibitory concentration (IC50) in data set [2] was greater than 10000 nM.
The compound `Cc1ncccc1-c1nc(C)c2nnc3ccc(F)cc3n12` [Example 12, 8-fluoro-3-methyl-1-(2-methylpyridin-3-yl)benzo[e]imidazo[5,1-c][1,2,4]triazine] had a melting point of 207 to 210 °C. The concentration for half-maximal inhibition (IC50) in data set [1] (setting [3]) was 780 nM. Also, the IC50 in data set [2] worked out at 187 nM.
The compound `Cc1nc(-c2ccccc2Cl)n2c1nnc1ccc(F)cc12` [Example 13, 1-(2-chlorophenyl)-8-fluoro-3-methylbenzo[e]imidazo[5,1-c][1,2,4]triazine] registered a melting point of 189 to 192 °C. Also, in data set [1] (setting [3]), the IC50 was 86 nM. The IC50 in data set [2] came out at 32.6 nM.
As for `Cc1nc(-c2cccc(Cl)c2Cl)n2c1nnc1ccc(F)cc12` [Example 14, 1-(2,3-dichlorophenyl)-8-fluoro-3-methylbenzo[e]imidazo[5,1-c][1,2,4]triazine], the melting point is 193 to 196 °C. Also, the IC50 in data set [1] (setting [3]) was determined as 308 nM. Further, the IC50 in data set [2] was found to be 371 nM.
The matching figures for `Cc1nc(-c2ccnn2C)n2c1nnc1ccc(F)cc12` [Example 15, 8-fluoro-3-methyl-1-(1-methyl-1H-pyrazol-5-yl)benzo[e]imidazo[5,1-c][1,2,4]triazine]: 217 to 220 °C, greater than 5000 nM and greater than 1000 nM.
The compound `COc1ccccc1-c1nc(C)c2nnc3ccc(F)cc3n12` [Example 16, 8-fluoro-1-(2-methoxyphenyl)-3-methylbenzo[e]imidazo[5,1-c][1,2,4]triazine] displayed a melting point of 196 to 198 °C. Besides, in data set [1] (setting [3]), the IC50 was 456 nM. Further, the IC50 in data set [2] came to 351 nM.
The compound `Cc1ccccc1-c1nc(C)c2nnc3ccc(F)cc3n12` [Example 17, 8-fluoro-3-methyl-1-o-tolylbenzo[e]imidazo[5,1-c][1,2,4]triazine] registered a melting point of 192 to 195 °C. For the same compound, the half-inhibitory concentration (IC50) in data set [1] (setting [3]) was determined as 196 nM. In addition, in data set [2], the IC50 amounted to 122 nM.
The matching figures for `COc1ccc(Cl)c(-c2nc(C)c3nnc4ccc(F)cc4n23)c1` [Example 18, 1-(2-chloro-5-methoxyphenyl)-8-fluoro-3-methylbenzo[e]imidazo[5,1-c][1,2,4]triazine]: 190 to 192 °C, 183 nM and 20.1 nM.
The compound `Cc1nc(-c2cnccc2Cl)n2c1nnc1ccc(F)cc12` [Example 19, 1-(4-chloropyridin-3-yl)-8-fluoro-3-methylbenzo[e]imidazo[5,1-c][1,2,4]triazine] displayed a melting point of 141 to 144 °C. In addition, the IC50 in data set [1] (setting [3]) came out at 2030 nM. Also, the IC50 in data set [2] came out at 1360 nM.
The like results for `Cc1nc(-c2cc(OC(C)C)ccc2F)n2c1nnc1ccc(F)cc12` [Example 20, 8-fluoro-1-(2-fluoro-5-isopropoxyphenyl)-3-methylbenzo[e]imidazo[5,1-c][1,2,4]triazine] were, in that order, 148 to 150.5 °C, 2290 nM and 473 nM.
For `Cc1nc(-c2cc(C(F)(F)F)ccc2F)n2c1nnc1ccc(F)cc12` [Example 21, 8-fluoro-1-(2-fluoro-5-(trifluoromethyl)phenyl)-3-methylbenzo[e]imidazo[5,1-c][1,2,4]triazine], the melting point is 176 to 179 °C. In data set [1] (setting [3]), the IC50 was greater than 1000 nM. Further, in data set [2], the IC50 amounted to 912 nM.
`CCCCOc1ccc(F)c(-c2nc(C)c3nnc4ccc(F)cc4n23)c1` [Example 22, 1-(5-butoxy-2-fluorophenyl)-8-fluoro-3-methylbenzo[e]imidazo[5,1-c][1,2,4]triazine] displayed a melting point of 148 to 151 °C. Also, in data set [1] (setting [3]), the IC50 is greater than 500 nM. The concentration for half-maximal inhibition (IC50) in data set [2] was 37.7 nM.
`CCCOc1ccc(F)c(-c2nc(C)c3nnc4ccc(F)cc4n23)c1` [Example 23, 8-fluoro-1-(2-fluoro-5-propoxyphenyl)-3-methylbenzo[e]imidazo[5,1-c][1,2,4]triazine]: the melting point was 153 to 155 °C. Further, the IC50 in data set [1] (setting [3]) was 1540 nM. Besides, in data set [2], the IC50 amounted to 59.1 nM.
The matching figures for `CCOc1ccc(F)c(-c2nc(C)c3nnc4ccc(F)cc4n23)c1` [Example 24, 1-(5-ethoxy-2-fluorophenyl)-8-fluoro-3-methylbenzo[e]imidazo[5,1-c][1,2,4]triazine]: 189 to 191 °C, greater than 500 nM and 240 nM.
The like results for `Cc1ncccc1-c1nc(C)c2nnc3cc(F)ccc3n12` [Example 25, 7-fluoro-3-methyl-1-(2-methylpyridin-3-yl)benzo[e]imidazo[5,1-c][1,2,4]triazine] were, in that order, 169 to 172 °C, 1490 nM and 341 nM.
Turning to `COc1ccccc1-c1nc(C)c2nnc3ccc(Cl)cc3n12` [Example 39, 8-chloro-1-(2-methoxyphenyl)-3-methylbenzo[e]imidazo[5,1-c][1,2,4]triazine], the melting point lay within 179 to 182 °C. In addition, the IC50 in data set [1] (setting [3]) stood at 115 nM.
`COc1cc2nnc3c(C)nc(CC(C)C)n3c2cc1OC` [Example 53, 1-isobutyl-7,8-dimethoxy-3-methylbenzo[e]imidazo[5,1-c][1,2,4]triazine] came in with a melting point of 196 to 199 °C.
Take `COc1cc2nnc3c(C)nc(Br)n3c2cc1OC` [Example 54, 1-bromo-7,8-dimethoxy-3-methylbenzo[e]imidazo[5,1-c][1,2,4]triazine]: the melting point was found to be 200 °C.
In the case of `COc1cc2nnc3c(C)nc(-c4cc(Cl)ccc4Cl)n3c2cc1OC` [Example 55, 1-(2,5-dichlorophenyl)-7,8-dimethoxy-3-methylbenzo[e]imidazo[5,1-c][1,2,4]triazine], the melting point was found to be 175 °C.
Take `COc1cc2nnc3c(C)nc(-c4cc(C)ccc4Cl)n3c2cc1OC` [Example 56, 1-(2-chloro-5-methylphenyl)-7,8-dimethoxy-3-methylbenzo[e]imidazo[5,1-c][1,2,4]triazine]: the melting point lay in the range of 247 to 249 °C.
On the same count and under the same terms, then `COc1cc2nnc3c(C)nc(-c4ccccc4C(F)(F)F)n3c2cc1OC` [Example 57, 7,8-dimethoxy-3-methyl-1-(2-(trifluoromethyl)phenyl)benzo[e]imidazo[5,1-c][1,2,4]triazine], with 147 to 150 °C.
As to `Cc1nc(-c2ccccc2Cl)n2c1nnc1cc(F)c(F)cc12` [Example 58, 1-(2-chlorophenyl)-7,8-difluoro-3-methylbenzo[e]imidazo[5,1-c][1,2,4]triazine], the melting point lay in the range of 157 to 159 °C.
The same measure, in the same setting: then `Cc1nc(CC(C)C)n2c1nnc1cc(F)c(F)cc12` [Example 59, 7,8-difluoro-1-isobutyl-3-methylbenzo[e]imidazo[5,1-c][1,2,4]triazine], with 123 to 125.5 °C.
